The values below come from patent US20140127292A1, “PHARMACEUTICAL COMPOSITIONS FOR THE ORAL ADMINISTRATION OF HEPARIN OR DERIVATIVES THEREOF” (Cosmo Technologies Limited, priority 2001, published 2014).

The series relates to colitis induced by trinitrobenzene sulfonic acid (TNBS). As to the kind of experiment: in vivo test: TNBS-induced colitis in rats, intracolonic treatment. The note with it: for Colon weight: 10 cm distal colon; for Colon weight / Macroscopic score / Necrosis areas (Mucosal Damage Area, MDA): day 4; for Body weight variation / Final body weight: days 1-3, day 4; for Macroscopic score / Necrosis areas (Mucosal Damage Area, MDA): distal colon. Here is the method:
70 Wister male rats were kept fasted for 20 hours before the induction of colitis. In the morning of the experiment (day 0), the rats were injected with a 40% solution of ethanol containing 30 mg of trinitrobenzene sulfonic acid (TNBS) by means of a single intracolonic injection. On days 1, 2 and 3 after the induction of colitis, Dalteparin sodium suspended in 0.25 mL of a 1% sodium cholate in saline (0.3 mg/rat, 0.6 mg/rat and 0.9 mg/rat), or 0.25 mL of vehicle (1% sodium cholate in saline) were instilled intracolonically. An additional group constituted by 4 untreated rats was also included. On day 4 from the induction of colitis, animals were euthanized and autopsy was performed. The colon have been isolated and 10 cm of the distal portion have been resected and weighted. […] The results, summarized in the table below, have been compared with those obtained from the control animals.

Where [1] appears, read: 0.6 mg/rat/die intracolonic, listed as dalteparin sodium.

Dalteparin sodium: for the setting “0.3 mg/rat/die intracolonic”, the Mortality turned out to be 0%, the Colon weight came out at 1.72 ± 0.30 g, the Body weight variation was −21% and the Final body weight stood at 166 ± 14 g. Also, where the note is “0.3 mg/rat/die intracolonic”, the Macroscopic score is 5.6 ± 0.52 and the “Necrosis areas (Mucosal Damage Area, MDA)” value (“Necrosis areas” for short) was 463.4 ± 89.6 mm^2. In addition, the Colon weight (0.3 mg/rat/die intracolonic, listed as dalteparin sodium) stood at 1.72 ± 0.30 g. In addition, where the note is “0.6 mg/rat/die intracolonic”, the Mortality came out at 10%, the Colon weight was 1.80 ± 0.38 g, the Body weight variation is −15% and the Final body weight is given as 180 ± 17 g. Moreover, where the note is “0.6 mg/rat/die intracolonic”, the Macroscopic score turned out to be 4.9 ± 1.05 and the “Necrosis areas” value is 309.9 ± 155.8 mm^2. Moreover, under setting [1], the Macroscopic score was 4.9±1.05 and the “Necrosis areas” value is 309.9±155.8 mm^2. Where the note is “0.9 mg/rat/die intracolonic”, the Mortality is on record as 10%, the Colon weight is reported as 1.76 ± 0.22 g, the Body weight variation is reported as −17% and the Final body weight is given as 176 ± 15 g. Further, where the note is “0.9 mg/rat/die intracolonic”, the Macroscopic score is recorded as 5.8 ± 0.44 and the “Necrosis areas” value worked out at 492.5 ± 104.6 mm^2. Further, the Colon weight (0.9 mg/rat/die intracolonic, listed as dalteparin sodium) came out at 1.76 ± 0.22 g. Moreover, the “overall effect of treatment on the considered parameters” value (0.3, 0.6 and 0.9 mg/rat intracolonic, versus vehicle control group) is recorded as “effective in reducing all the considered parameters”.
